Results taken from patent US20140155445A1, “Compounds and Methods for Treating Cancer and Diseases of the Central Nervous System” (Osta Biotechnologies Inc., priority 2007, published 2014).
Counter-ions that a name gives are not always drawn. Like-named read-outs stand apart in the source and are kept apart here.

Key:
[1] = biological target: T1, HO-1 (rat spleen) (Rattus norvegicus, UniProt P06762); assay: HO enzymatic activity in rat spleen microsomal fraction (CO formed from methemalbumin, gas chromatography); format: biochemical
T1 construct: Spleen microsomes were used as a source of HO-1; from tissue; host or cells: spleen microsomal fraction of adult male Sprague-Dawley rats
T1 sequence (P06762 1-289): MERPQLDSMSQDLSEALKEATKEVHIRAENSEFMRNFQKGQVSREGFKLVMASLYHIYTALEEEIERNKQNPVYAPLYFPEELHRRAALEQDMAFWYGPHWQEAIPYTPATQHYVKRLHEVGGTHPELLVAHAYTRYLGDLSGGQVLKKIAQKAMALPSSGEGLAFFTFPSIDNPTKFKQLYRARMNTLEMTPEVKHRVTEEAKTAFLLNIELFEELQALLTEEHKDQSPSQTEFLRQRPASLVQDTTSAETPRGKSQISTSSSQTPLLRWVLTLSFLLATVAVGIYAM
Procedure: (§1) Incubations for HO activity analysis were done under conditions for which the rate of CO formation (pmol CO×min^−1×mg protein^−1) was linear with respect to time and microsomal protein concentration. Briefly, reaction mixtures (150 μL) consisting of 100 mM phosphate buffer (pH 7.4), 50 μM methemalbumin, and 1 mg/mL protein were pre-incubated with the inhibitors at final concentrations ranging from 0.1-100 μM for 10 minutes at 37° C. Reactions were initiated by adding NADPH at a final concentration of 1 mM and incubations were performed for an additional 15 minutes at 37° C.
(§2) Incubations for HO activity analysis were done under conditions for which the rate of CO formation (pmol CO/mg protein/minute) was linear with respect to time and microsomal protein concentration. Briefly, reaction mixtures (150 μL) consisting of 100 mM phosphate buffer (pH 7.4), 50 μM methemalbumin and 1 mg/mL protein were pre-incubated with the vehicle (ethanol or water in which the inhibitors were dissolved), or inhibitors at final concentrations ranging from 0.1-1000 μM for 10 minutes at 37° C. Reactions were initiated by adding β-NADPH at a final concentration of 1 mM and incubations were carried out for an additional 15 minutes at 37° C. Reactions were stopped by instantly freezing the reaction mixture on pulverized dry ice and CO formation was measured by gas chromatography using a TA 3000R Process Gas Analyzer (Trace Analytical/Ametek, Newark, Del., USA).
(§3) The values on the abscissa represent the decimal logarithm of the inhibitor's concentration (in μM), whereas the values of the activity on the ordinate are expressed as a percentage of the control experiments without inhibitor.
(§4) The IC50 values for the replicate experiments were employed to generate the reported standard deviation value.

[2] = biological target: T2, HO-2 (rat brain) (Rattus norvegicus, UniProt P23711); assay: HO enzymatic activity in rat brain microsomal fraction (CO formed from methemalbumin, gas chromatography); format: biochemical
T2 construct: brain microsomes were used as a source of HO-2; from tissue; host or cells: brain microsomal fraction of adult male Sprague-Dawley rats
T2 sequence (P23711 1-315): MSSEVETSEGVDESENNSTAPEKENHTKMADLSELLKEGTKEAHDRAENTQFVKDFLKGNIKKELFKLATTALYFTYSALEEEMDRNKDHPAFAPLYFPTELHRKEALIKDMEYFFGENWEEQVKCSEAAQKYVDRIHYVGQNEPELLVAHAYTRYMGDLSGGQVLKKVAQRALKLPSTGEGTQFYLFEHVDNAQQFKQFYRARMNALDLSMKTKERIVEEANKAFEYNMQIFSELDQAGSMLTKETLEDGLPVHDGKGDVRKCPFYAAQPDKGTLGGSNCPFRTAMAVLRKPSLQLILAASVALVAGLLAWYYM
Procedure: as §1, §2, §3, §4

[3] = rat spleen microsomes, average ± standard deviation of replicate experiments, read-out: IC50 HO-1 (rat spleen)/μM
[4] = rat brain microsomes, average ± standard deviation of replicate experiments, read-out: IC50 HO-2 (rat brain)/μM

Row | Compound | IC50 [1, 3] [µM] | IC50 [2, 4] [µM] | also measured
1 | Nc1ccccc1SC[C@@H]1CO[C@@](CCc2ccc(Cl)cc2)(Cn2ccnc2)O1 [(2R,4S)-2-[2-(4-chlorophenyl)ethyl]-2-[(1H-imidazol-1-yl)methyl]-4-[{(2-aminophenyl)thio}meth-yl]-1,3-dioxolane dihydrochloride] | 4 ± 2 | 42 ± 28 | 
2 | OC(CCc1ccc(Cl)cc1)Cn1ccnc1 (stereo not drawn) [4-(4-chlorophenyl)-1-(1H-imidazol-1-yl)butan-2-ol hydrochloride] | 0.5 ± 0.1 | 4 ± 0.6 | 
3 | O=C(CCc1ccccc1)Cn1nc(Br)nc1Br [1-(3,5-Dibromo-[1,2,4]triazol-1-yl)-4-phenyl-butan-2-one] | > 100 | > 100 | 
4 | CC(=O)C(Cc1ccc(Cl)cc1)n1ccnc1 (racemic) [(±)-4-(4-chlorophenyl)-3-imidazol-1-yl-butan-2-one hydrochloride] |  |  | IC50 [1]: > 100 µM; IC50 [2]: > 100 µM
5 | O=C(CCc1ccccc1)Cn1cnc(-c2ccccc2)n1 [4-Phenyl-1-(3-phenyl-[1,2,4]triazol-1-yl)-butan-2-one] | 9 ± 2 | 90 ± 33 | 
6 | O=C(CCc1ccccc1)Cn1ccnc1-c1ccccc1 [4-phenyl-1-(2-phenyl-imidazol-1-yl)butan-2-one hydrochloride] | > 100 | > 100 | 
7 | O=C(Cn1ccnc1)c1ccc2c(c1)CCCC2 [2-imidazol-1-yl-1-(5,6,7,8-tetrahydro-naphthalen-2-yl)-ethanone hydrochloride] | 4 ± 1 | 6.7 ± 0.3 | 
8 | O=C(CCc1ccccc1)Cn1cnc(Br)c1 [1-(4-Bromo-imidazol-1-yl)-4-phenyl-butan-2-one] | > 100 | > 100 | 
9 | COc1ccc(OCC2CO[C@](CCc3ccc(Cl)cc3)(Cn3ccnc3)O2)cc1 (stereo in doubt) [(2S,4S)-2-[2-(4-chlorophenyl)ethyl]-2-[(1H-imidazol-1-yl)methyl]-4-[(4-methoxyphenyloxy)meth-yl]-1,3-dioxolane hydrochloride] | 28 ± 15 | 29 ± 6 | 
10 | c1ccc(CCC2(Cn3cncn3)OCCO2)cc1 [2-(2-phenethyl)-2-{(1H-[1,2,4]triazol-1-yl)methyl}-1,3-dioxolane hydrochloride] | 13 ± 2 | > 100 | 
11 | O=C(CCc1ccccc1)Cn1nc(-c2ccccc2)nc1-c1ccccc1 [1-(3,5-Diphenyl-[1,2,4]triazol-1-yl)-4-phenyl-butan-2-one] | > 100 | > 100 | 
12 | O=C(Cn1ccnc1)c1ccc(Cl)cc1Cl [1-(2,4-dichloro-phenyl)-2-imidazol-1-yl-ethanone hydrochloride] | 2.2 ± 0.5 | 15 ± 1 | 
13 | Cc1nccn1CC(=O)CCc1ccccc1 [1-(2-methyl-imidazol-1-yl)-4-phenyl-butan-2-one hydrochloride] | > 100 | > 100 | 
14 | c1ccc(SCCCn2ccnc2)cc1 [1-(3-phenylsulfanyl-propyl)-1H-imidazole hydrochloride] | 2.4 ± 0.2 | 16 ± 2 | 
15 | OC(Cn1ccnc1)c1ccc(-c2ccc(Br)cc2)cc1 (racemic) [drawing 342, (±)-1-(4′-bromo-biphenyl-4-yl)-2-imidazol-1-yl-ethanol] | 0.06 ± 0.03 | > 100 | 
16 | c1ccc2cc(C3(Cn4ccnc4)OCCO3)ccc2c1 [1-(2-naphthalen-2-yl-[1,3]dioxolan-2-ylmethyl)-1H-imidazole hydrochloride] | 2.63 ± 0.06 | > 100 | 
17 | Cc1nccn1CC1(CCc2ccc(Cl)cc2)OCCO1.Cl |  |  | IC50 HO-1 (rat spleen)/μM ([1]; rat spleen microsomes, average ± standard deviation of replicate experiments): INACTIVE; IC50 HO-2 (rat brain)/μM ([2]; rat brain microsomes, average ± standard deviation of replicate experiments): INACTIVE
18 | Fc1ccc(SC[C@@H]2CO[C@@](CCc3ccc(Cl)cc3)(Cn3ccnc3)O2)cc1 [(2R,4S)-2-[2-(4-chlorophenyl)ethyl]-2-[(1H-imidazol-1-yl)methyl]-4-[{(4-fluorophenyl)thio}meth-yl]-1,3-dioxolane hydrochloride] | 2.2 ± 0.2 | 5 ± 4 | 

Row | Compound | IC50 [1, 3] [µM] | IC50 [2, 4] [µM] | also measured
19 | c1ccc(-c2ccc(C3(Cn4ccnc4)OCCO3)cc2)cc1 [1-(2-biphenyl-4-yl-[1,3]dioxolan-2-ylmethyl)-1H-imidazole hydrochloride] | 16.2 ± 0.4 | > 100 | 
20 | Imidazole [reference compound] | > 100 | > 100 | 
21 | COc1ccc(OCC2CO[C@@](CCc3ccc(Cl)cc3)(Cn3ccnc3)O2)cc1 (stereo in doubt) [(2R,4S)-1-[2-[2-(4-chloro-phenyl)-ethyl]-4-(4-methoxy-phenoxymethyl)-[1,3]dioxolan-2-ylmethyl]-1H-imidazole hydrochloride] | 1.33 ± 0.03 | 19 ± 7 | 
22 | c1ccc(CCC2(Cn3nccn3)OCCO2)cc1 [2-(2-Phenethyl-[1,3]dioxolan-2-ylmethyl)-2H-[1,2,3]triazole] | > 100 | > 100 | 
23 | O=C(c1ccccc1)C(c1ccccc1)n1ccnc1 (racemic) [(±)-2-imidazol-1-yl-1,2-diphenyl-ethanone hydrochloride] | 24 ± 6 | > 100 | 
24 | O=C(CCn1ccnc1)C12CC3CC(CC(C3)C1)C2 [1-adamantan-1-yl-3-imidazol-1-yl-propan-1-one hydrochloride] | 3.5 ± 0.8 | ~100 | 
25 | Clc1ccc(CCCCn2ccnc2)cc1 [4-(4-chlorophenyl)-1-(1H-imidazol-1-yl)butane hydrochloride] | 0.47 ± 0.05 | 4 ± 2 | 
26 | O=C(Cn1cncn1)c1ccc2ccccc2c1 [1-Naphthalen-2-yl-2-[1,2,4]triazol-1-yl-ethanone hydrochloride] | 0.7 ± 0.1 | 42 ± 10 | 
27 | Clc1ccc(OCCCCCNc2nc3ccccc3[nH]2)cc1 [(1H-Benzoimidazol-2-yl)-[5-(4-chloro-phenoxy)-pentyl]-amine] | ~98 | ~105 | 
28 | CS(=O)(=O)c1nnn(CC(=O)CCc2ccccc2)n1 [1-(5-Methanesulfonyl-tetrazol-2-yl)-4-phenyl-butan-2-one] | > 100 | > 100 | 
29 | CSc1nnnn1CC(=O)CCc1ccccc1 [1-(5-Methylsulfanyl-tetrazol-1-yl)-4-phenyl-butan-2-one] | > 100 | > 100 | 
30 | c1ccc(OCCCCn2ccnc2)cc1 [1-(4-phenoxy-butyl)-1H-imidazole hydrochloride] | 4 ± 1 | 4.6 ± 0.5 | 
31 | Brc1ccc(CCC2(Cn3ccnc3)OCCO2)cc1 [2-[2-(4-bromophenyl)ethyl]-2-[(1H-imidazol-1-yl)methyl]-1,3-dioxolane hydrochloride] | 1.9 ± 0.2 |  | IC50 ([2]; rat brain microsomes, average ± standard deviation of replicate experiments, hydrochloride, read-out: IC50 HO-2 (rat brain)/μM): > 100 µM
32 | FC[C@@H]1CO[C@@](CCc2ccc(Cl)cc2)(Cn2ccnc2)O1 [drawing 85, (2R,4S)-2-[2-(4-chlorophenyl)ethyl]-2-[(1H-imidazol-1-yl)methyl]-4-(fluoromethyl)-1,3-dioxolane hydrochloride] | 1.2 ± 0.01 | 4.4 ± 0.4 | 
33 | CC(C(=O)c1ccccc1)n1ccnc1 (racemic) [(±)-2-imidazol-1-yl-1-phenyl-propan-1-one hydrochloride] |  |  | IC50 [1]: 49 ± 2 µM; IC50 [2]: > 100 µM
34 | O=C(CCc1ccccc1)Cn1cnc(-c2ccccc2)c1 [drawing 162, 4-Phenyl-1-(4-phenyl-imidazol-1-yl)-butan-2-one hydrochloride] | 32 ± 2 | > 100 | 
35 | Clc1ccc(/C(Cn2ccnc2)=N/OCc2ccc(Br)cc2)cc1 [1-(4-chloro-phenyl)-2-imidazol-1-yl-ethanone O-(4-bromo-benzyl)-oxime hydrochloride] | 8.3 ± 0.9 | 51 ± 26 | 
36 | Cn1ccnc1 [1-methylimidazole hydrochloride, reference compound] | > 100 | > 100 | 
